# Data taken from patent US20070099877A1, “N-aryl-thienopyrimidin-4-amines and analogs as activators of caspases and inducers of apoptosis and the use thereof” (Cytovia, Inc., priority 2005, published 2007).
# Counter-ions that a name gives are not always drawn.
# Test system: human breast cancer cell line T-47D
# Assay: Caspase cascade activation (DEVD-R110 fluorogenic substrate) in T-47D cells
# Assay type: cell-based
# Conditions: Homo sapiens, T47D, 24 h, T47D cells, 24 h; read-out: Caspase activation Potency EC50 T47D (24 h)
# Method in brief: (§1)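 Cells were exposed to compound at 0.016 to 10 μM final for 24 h or 48 h at 37 °C. They were then lysed with 14 μM N-(Ac-DEVD)-N′-ethoxycarbonyl-R110 in lysolecithin/DTT/PIPES buffer pH 7.2 for 3 h at room temperature (ex 485/em 530 nm). EC50 came from a sigmoidal fit of net RFU relative to untreated control.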
row,SMILES,EC50
1,"COc1cc(Nc2ncnc3ccsc23)cc(-n2cnnn2)c1 [Example 61, N-(3-Methoxy-5-(1H-tetrazol-1-yl)phenyl)thieno[3,2-d]pyrimidin-4-amine]",0.355 µM
2,"COc1ccc(OC)c(Nc2ncnc3sccc23)c1 [Example 5, N-(2,5-Dimethoxyphenyl)thieno[2,3-d]pyrimidin-4-amine hydrochloride]",0.147 µM
3,"COc1ccc(OC)c(Nc2nc(C)nc3ccsc23)c1 [Example 1, N-(2,5-Dimethoxyphenyl)-2-methylthieno[3,2-d]pyrimidin-4-amine]",0.065 µM

# Same assay, conditions: Homo sapiens, T47D, 48 h, T-47D cells, 48 h; read-out: Caspase activation Potency EC50 T-47D (48 h)
row,SMILES,EC50
1,"COc1cc(Nc2ncnc3ccsc23)cc(-n2cnnn2)c1 [Example 61, N-(3-Methoxy-5-(1H-tetrazol-1-yl)phenyl)thieno[3,2-d]pyrimidin-4-amine]",0.287 µM
2,"COc1ccc(OC)c(Nc2ncnc3sccc23)c1 [Example 5, N-(2,5-Dimethoxyphenyl)thieno[2,3-d]pyrimidin-4-amine hydrochloride]",0.296 µM
3,"COc1ccc(OC)c(Nc2nc(C)nc3ccsc23)c1 [Example 1, N-(2,5-Dimethoxyphenyl)-2-methylthieno[3,2-d]pyrimidin-4-amine]",0.04 µM

# Test system: human lung cancer cell line H1299
# Assay: Caspase cascade activation in H1299 cells
# Assay type: cell-based
# Conditions: NCI-H1299, 24 h, read-out: Caspase activation Potency EC50 H1299 (24 h)
# Method in brief: as §1
row,SMILES,EC50
1,"COc1ccc(OC)c(Nc2ncnc3sccc23)c1 [Example 5, N-(2,5-Dimethoxyphenyl)thieno[2,3-d]pyrimidin-4-amine hydrochloride]",> 10 µM
2,"COc1ccc(OC)c(Nc2nc(C)nc3ccsc23)c1 [Example 1, N-(2,5-Dimethoxyphenyl)-2-methylthieno[3,2-d]pyrimidin-4-amine]",1.55 µM

# Test system: human hepatocellular carcinoma cell line SNU398
# Assay: Caspase cascade activation in SNU398 cells
# Assay type: cell-based
# Conditions: Homo sapiens, SNU-398, 48 h, read-out: Caspase activation Potency EC50 SNU398 (48 h)
# Method in brief: as §1
row,SMILES,EC50
1,"COc1cc(Nc2ncnc3ccsc23)cc(-n2cnnn2)c1 [Example 61, N-(3-Methoxy-5-(1H-tetrazol-1-yl)phenyl)thieno[3,2-d]pyrimidin-4-amine]",0.138 µM
2,"COc1ccc(OC)c(Nc2ncnc3sccc23)c1 [Example 5, N-(2,5-Dimethoxyphenyl)thieno[2,3-d]pyrimidin-4-amine hydrochloride]",> 10 µM
3,"COc1ccc(OC)c(Nc2nc(C)nc3ccsc23)c1 [Example 1, N-(2,5-Dimethoxyphenyl)-2-methylthieno[3,2-d]pyrimidin-4-amine]",0.557 µM

# Test system: human colon carcinoma cell line HCT116
# Assay: Caspase cascade activation in HCT116 cells
# Assay type: cell-based
# Conditions: Homo sapiens, HCT-116, 48 h, read-out: Caspase activation Potency EC50 HCT116 (48 h)
# Method in brief: as §1
row,SMILES,EC50
1,"COc1cc(Nc2ncnc3ccsc23)cc(-n2cnnn2)c1 [Example 61, N-(3-Methoxy-5-(1H-tetrazol-1-yl)phenyl)thieno[3,2-d]pyrimidin-4-amine]",0.291 µM
2,"COc1ccc(OC)c(Nc2ncnc3sccc23)c1 [Example 5, N-(2,5-Dimethoxyphenyl)thieno[2,3-d]pyrimidin-4-amine hydrochloride]",> 10 µM
3,"COc1ccc(OC)c(Nc2nc(C)nc3ccsc23)c1 [Example 1, N-(2,5-Dimethoxyphenyl)-2-methylthieno[3,2-d]pyrimidin-4-amine]",2.33 µM

# Test system: human breast cancer cell line T-47D
# Assay: Inhibition of cell proliferation (GI50, CellTiter-Glo) in T-47D cells
# Assay type: cell-based
# Conditions: Table III, T47D cells, 48 h, read-out: GI50 in Cancer Cells T47D
# Experimental: (§2) Human breast cancer cell lines T-47D, MX-1 and MDAMB435, human colon cancer cell line HT29, and human lung cancer cell line H1299 were grown and harvested as in Example 75. An aliquot of […] of cells (4.4×10^4 cells/mL) was added to a well of a 96-well microtiter plate containing 5 μL of a 10% DMSO in RPMI-1640 media solution containing 10 nM to 100 μM of N-(2,5-dimethoxyphenyl)-2-methylthieno[3,2-d]pyrimidin-4-amine (1 nM to 10 μM final). An aliquot of 45 μL of cells was added to a well of a 96-well microtiter plate containing 5 μL of a 10% DMSO in RPMI-1640 media solution without compound as the control sample for maximal cell proliferation (Lmax). The samples were mixed by agitation and then incubated at 37° C. for 48 h in a 5% CO2-95% humidity incubator. After incubation, the samples were removed from the incubator and 25 μL of CellTiter-Glo™ reagent (Promega) was added. The samples were mixed by agitation and incubated at room temperature for 10-15 min. Plates were then read using a luminescent plate reader (Model SPECTRAfluor Plus, Tecan) to give Ltest values.
# (§3) Baseline for GI50 (dose for 50% inhibition of cell proliferation) of initial cell numbers was determined by adding an aliquot of 45 μL of cells or 45 μL of media, respectively, to wells of a 96-well microtiter plate containing 5 μL of a 10% DMSO in RPMI-1640 media solution. The samples were mixed by agitation and then incubated at 37° C. for 0.5 h in a 5% CO2-95% humidity incubator. After incubation, the samples were removed from the incubator and 25 μL of CellTiter-Glo™ reagent (Promega) was added. The samples were mixed by agitation and incubated at 37° C. for 10-15 min at room temperature in a 5% CO2-95% humidity incubator. Fluorescence was read as above, (LStart) defining luminescence for initial cell number used as baseline in GI50 determinations.
# (§4) GI50 (dose for 50% inhibition of cell proliferation) is the concentration where [(LTest−Lstart)/(LMax−Lstart)]=0.5.
row,SMILES,GI50
1,"COc1ccc(OC)c(Nc2ncnc3sccc23)c1 [Example 5, N-(2,5-Dimethoxyphenyl)thieno[2,3-d]pyrimidin-4-amine hydrochloride]",0.2 µM
2,"COc1ccc(OC)c(Nc2nc(C)nc3ccsc23)c1 [Example 1, N-(2,5-Dimethoxyphenyl)-2-methylthieno[3,2-d]pyrimidin-4-amine]",0.08 µM

# Same assay, conditions: Table IV, T47D cells, read-out: GI50 in Multi-Cancer Cells T47D
row,SMILES,GI50
1,"COc1cc(Nc2ncnc3ccsc23)cc(-n2cnnn2)c1 [Example 61, N-(3-Methoxy-5-(1H-tetrazol-1-yl)phenyl)thieno[3,2-d]pyrimidin-4-amine]",0.398 µM

# Test system: human breast cancer cell line MX-1
# Assay: Inhibition of cell proliferation (GI50) in MX-1 cells
# Assay type: cell-based
# Conditions: Table III, MX1 cells, 48 h, read-out: GI50 in Cancer Cells MX1
# Experimental: as §2, §3, §4
row,SMILES,GI50
1,"COc1ccc(OC)c(Nc2ncnc3sccc23)c1 [Example 5, N-(2,5-Dimethoxyphenyl)thieno[2,3-d]pyrimidin-4-amine hydrochloride]",0.3 µM
2,"COc1ccc(OC)c(Nc2nc(C)nc3ccsc23)c1 [Example 1, N-(2,5-Dimethoxyphenyl)-2-methylthieno[3,2-d]pyrimidin-4-amine]",0.3 µM

# Same assay, conditions: Table IV, MX1 cells, read-out: GI50 in Multi-Cancer Cells MX1
row,SMILES,GI50
1,"COc1cc(Nc2ncnc3ccsc23)cc(-n2cnnn2)c1 [Example 61, N-(3-Methoxy-5-(1H-tetrazol-1-yl)phenyl)thieno[3,2-d]pyrimidin-4-amine]",0.791 µM

# Test system: human breast cancer cell line MDAMB435
# Assay: Inhibition of cell proliferation (GI50) in MDAMB435 cells
# Assay type: cell-based
# Conditions: MDA-MB-435, Table III, 48 h, read-out: GI50 in Cancer Cells MDAMB435
# Experimental: as §2, §3, §4
row,SMILES,GI50
1,"COc1ccc(OC)c(Nc2ncnc3sccc23)c1 [Example 5, N-(2,5-Dimethoxyphenyl)thieno[2,3-d]pyrimidin-4-amine hydrochloride]",> 10 µM
2,"COc1ccc(OC)c(Nc2nc(C)nc3ccsc23)c1 [Example 1, N-(2,5-Dimethoxyphenyl)-2-methylthieno[3,2-d]pyrimidin-4-amine]",0.295 µM

# Same assay, conditions: MDA-MB-435, Table IV, read-out: GI50 in Multi-Cancer Cells MDAMB435
row,SMILES,GI50
1,"COc1cc(Nc2ncnc3ccsc23)cc(-n2cnnn2)c1 [Example 61, N-(3-Methoxy-5-(1H-tetrazol-1-yl)phenyl)thieno[3,2-d]pyrimidin-4-amine]",0.061 µM

# Test system: human lung cancer cell line H1299
# Assay: Inhibition of cell proliferation (GI50) in H1299 cells
# Assay type: cell-based
# Conditions: NCI-H1299, Table III, 48 h
# Experimental: as §2, §3, §4
row,SMILES,GI50
1,"COc1ccc(OC)c(Nc2ncnc3sccc23)c1 [Example 5, N-(2,5-Dimethoxyphenyl)thieno[2,3-d]pyrimidin-4-amine hydrochloride]",> 10 µM
2,"COc1ccc(OC)c(Nc2nc(C)nc3ccsc23)c1 [Example 1, N-(2,5-Dimethoxyphenyl)-2-methylthieno[3,2-d]pyrimidin-4-amine]",1.17 µM

# Test system: human colon cancer cell line HT29
# Assay: Inhibition of cell proliferation (GI50) in HT29 cells
# Assay type: cell-based
# Conditions: HT-29, Table III, 48 h
# Experimental: as §2, §3, §4
row,SMILES,GI50
1,"COc1ccc(OC)c(Nc2ncnc3sccc23)c1 [Example 5, N-(2,5-Dimethoxyphenyl)thieno[2,3-d]pyrimidin-4-amine hydrochloride]",> 10 µM
2,"COc1ccc(OC)c(Nc2nc(C)nc3ccsc23)c1 [Example 1, N-(2,5-Dimethoxyphenyl)-2-methylthieno[3,2-d]pyrimidin-4-amine]",3.55 µM

# Test system: human hepatocellular carcinoma cell line SNU398
# Assay: Inhibition of cell proliferation (GI50) in SNU398 cells
# Assay type: cell-based
# Conditions: SNU-398, Table IV, read-out: GI50 in Multi-Cancer Cells SNU398
# Experimental: as §2, §3, §4
# (§5) Several compounds were tested in multi cancer cell lines, including human breast cancer cell lines T-47D, MX-1, SKBR3 and MDAMB435, human hepatocellular carcinoma cell line SNU398, human colon carcinoma cell line HCT116, human sarcoma cell line MES-SA and multi-drug resistant (MDR) human sarcoma cell line MES-SA/ADR, murine leukemia cell line P388 and multi-drug resistant (MDR) murine leukemia cell line P388ADR, and the data are summarized in Table IV.
row,SMILES,GI50
1,"COc1cc(Nc2ncnc3ccsc23)cc(-n2cnnn2)c1 [Example 61, N-(3-Methoxy-5-(1H-tetrazol-1-yl)phenyl)thieno[3,2-d]pyrimidin-4-amine]",0.299 µM

# Test system: human colon carcinoma cell line HCT116
# Assay: Inhibition of cell proliferation (GI50) in HCT116 cells
# Assay type: cell-based
# Conditions: HCT-116, Table IV, read-out: GI50 in Multi-Cancer Cells HCT116
# Experimental: as §2, §3, §4, §5
row,SMILES,GI50
1,"COc1cc(Nc2ncnc3ccsc23)cc(-n2cnnn2)c1 [Example 61, N-(3-Methoxy-5-(1H-tetrazol-1-yl)phenyl)thieno[3,2-d]pyrimidin-4-amine]",0.4 µM

# Test system: human breast cancer cell line SKBR3
# Assay: Inhibition of cell proliferation (GI50) in SKBR3 cells
# Assay type: cell-based
# Conditions: SK-BR-3, Table IV, read-out: GI50 in Multi-Cancer Cells SKBR3
# Experimental: as §2, §3, §4, §5
row,SMILES,GI50
1,"COc1cc(Nc2ncnc3ccsc23)cc(-n2cnnn2)c1 [Example 61, N-(3-Methoxy-5-(1H-tetrazol-1-yl)phenyl)thieno[3,2-d]pyrimidin-4-amine]",0.6 µM

# Test system: human sarcoma cell line MES-SA
# Assay: Inhibition of cell proliferation (GI50) in MES-SA cells
# Assay type: cell-based
# Conditions: Table IV, read-out: GI50 in Multi-Cancer Cells MES-SA
# Experimental: as §2, §3, §4, §5
row,SMILES,GI50
1,"COc1cc(Nc2ncnc3ccsc23)cc(-n2cnnn2)c1 [Example 61, N-(3-Methoxy-5-(1H-tetrazol-1-yl)phenyl)thieno[3,2-d]pyrimidin-4-amine]",0.836 µM

# Test system: multi-drug resistant (MDR) human sarcoma cell line MES-SA/ADR
# Assay: Inhibition of cell proliferation (GI50) in MES-SA/ADR cells
# Assay type: cell-based
# Conditions: Table IV, read-out: GI50 in Multi-Cancer Cells MES-SA/ADR
# Experimental: as §2, §3, §4, §5
row,SMILES,GI50
1,"COc1cc(Nc2ncnc3ccsc23)cc(-n2cnnn2)c1 [Example 61, N-(3-Methoxy-5-(1H-tetrazol-1-yl)phenyl)thieno[3,2-d]pyrimidin-4-amine]",0.767 µM

# Test system: murine leukemia cell line P388
# Assay: Inhibition of cell proliferation (GI50) in P388 cells
# Assay type: cell-based
# Conditions: Mus musculus, Table IV, read-out: GI50 in Multi-Cancer Cells P388
# Experimental: as §2, §3, §4, §5
row,SMILES,GI50
1,"COc1cc(Nc2ncnc3ccsc23)cc(-n2cnnn2)c1 [Example 61, N-(3-Methoxy-5-(1H-tetrazol-1-yl)phenyl)thieno[3,2-d]pyrimidin-4-amine]",0.28 µM

# Test system: multi-drug resistant (MDR) murine leukemia cell line P388ADR
# Assay: Inhibition of cell proliferation (GI50) in P388/ADR cells
# Assay type: cell-based
# Conditions: Mus musculus, Table IV, read-out: GI50 in Multi-Cancer Cells P388/ADR
# Experimental: as §2, §3, §4, §5
row,SMILES,GI50
1,"COc1cc(Nc2ncnc3ccsc23)cc(-n2cnnn2)c1 [Example 61, N-(3-Methoxy-5-(1H-tetrazol-1-yl)phenyl)thieno[3,2-d]pyrimidin-4-amine]",0.199 µM
